The values below come from patent US8198273B2, “Compounds and methods for kinase modulation, and indications therefor” (Plexxikon Inc., priority 2009, dated 2012).

Data set [1] has as its target c-Raf-1 (Homo sapiens, UniProt P04049). Nature of the data set: c-Raf-1 biochemical kinase inhibition (AlphaScreen, biotin-MEK1 substrate). As to conditions: 100 μM ATP. An outline of the steps: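 Eight-point compound series (made from a 0.1 mM DMSO stock) tested against each Raf enzyme with biotin-MEK1 substrate and 100 μM final ATP.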
In general terms: Bead proximity is the source of the signal in Alpha formats.

Data set [2] concerns SW620 colon adenocarcinoma cells (wild-type B-RAF). Nature of the data set: SW620 cell growth inhibition (ATPlite). The format is cell-based. As to conditions: Homo sapiens, SW-620, 72 h; SW620, 3 days incubation. A digest of the protocol: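 ATPlite luminescence, taken as a cell-number measure, gave IC50 values after a 3-day 37° C, 5% CO2 incubation. Compounds were tested as 8-point threefold titrations, highest final concentration 10 μM, added to cells seeded the day before.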
(Cellular ATP, detected with luciferase, serves as a proxy for viable cell number.)

Data set [3] has as its target CYP2C19 (Homo sapiens, UniProt P33261). Kind of data set: CYP2C19 inhibition (fluorescent substrate). It counts as in vitro ADME. The settings on record: CYP2C19, CEC substrate; read-out: Cyp IC50 2C19. A digest of the protocol:
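10-pt 1:1 serial dilution in co-factor mix (DMSO stock 100 mM); 10 min preincubation, 37 °C; reaction at 37 °C. Readout: fluorescent metabolite of probe substrate. IC50 from signal vs [compound].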

The target in data set [4] is CYP3A4(BFC) (Homo sapiens, UniProt P08684). Kind of data set: CYP3A4(BFC) inhibition (fluorescent substrate). The format is in vitro ADME. As to conditions: read-out: Cyp IC50 3A4(BFC). A digest of the protocol:
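Compound, from a 100 mM DMSO stock and diluted 1:1 over 10 points in co-factor mix, was incubated at 37° C with enzyme and a known substrate. Decrease in fluorescent product against concentration gave the IC50.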

CYP3A4(BFC), sequence (P08684 whole entry): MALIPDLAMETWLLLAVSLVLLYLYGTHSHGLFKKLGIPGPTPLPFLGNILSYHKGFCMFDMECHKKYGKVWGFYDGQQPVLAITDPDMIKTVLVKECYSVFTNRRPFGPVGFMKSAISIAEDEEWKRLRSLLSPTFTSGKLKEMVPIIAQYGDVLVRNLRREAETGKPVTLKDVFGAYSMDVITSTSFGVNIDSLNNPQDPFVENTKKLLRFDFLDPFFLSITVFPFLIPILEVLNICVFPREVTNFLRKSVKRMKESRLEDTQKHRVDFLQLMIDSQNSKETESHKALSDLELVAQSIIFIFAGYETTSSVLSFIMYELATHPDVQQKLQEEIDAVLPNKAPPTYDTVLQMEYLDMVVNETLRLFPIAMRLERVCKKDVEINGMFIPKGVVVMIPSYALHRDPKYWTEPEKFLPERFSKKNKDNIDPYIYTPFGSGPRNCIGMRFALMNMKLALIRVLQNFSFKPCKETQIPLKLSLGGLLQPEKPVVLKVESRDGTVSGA
c-Raf-1, sequence (P04049 whole entry): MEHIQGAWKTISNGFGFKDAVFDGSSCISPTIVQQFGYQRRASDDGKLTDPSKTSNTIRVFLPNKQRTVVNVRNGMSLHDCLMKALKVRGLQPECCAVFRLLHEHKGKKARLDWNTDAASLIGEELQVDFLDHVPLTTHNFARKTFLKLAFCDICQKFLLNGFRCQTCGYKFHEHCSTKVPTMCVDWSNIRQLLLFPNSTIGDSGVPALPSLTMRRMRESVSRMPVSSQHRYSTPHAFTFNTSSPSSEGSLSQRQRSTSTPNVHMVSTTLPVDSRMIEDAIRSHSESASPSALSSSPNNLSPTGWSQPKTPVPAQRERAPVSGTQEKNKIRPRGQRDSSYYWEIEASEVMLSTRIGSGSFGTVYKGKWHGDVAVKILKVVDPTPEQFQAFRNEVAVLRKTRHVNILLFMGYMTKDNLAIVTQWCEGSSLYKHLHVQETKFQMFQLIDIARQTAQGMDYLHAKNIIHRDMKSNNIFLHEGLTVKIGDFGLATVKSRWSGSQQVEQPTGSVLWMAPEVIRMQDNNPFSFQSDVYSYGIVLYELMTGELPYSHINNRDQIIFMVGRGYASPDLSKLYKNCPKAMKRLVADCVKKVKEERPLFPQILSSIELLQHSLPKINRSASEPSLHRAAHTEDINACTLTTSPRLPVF
CYP2C19, sequence (P33261 whole entry): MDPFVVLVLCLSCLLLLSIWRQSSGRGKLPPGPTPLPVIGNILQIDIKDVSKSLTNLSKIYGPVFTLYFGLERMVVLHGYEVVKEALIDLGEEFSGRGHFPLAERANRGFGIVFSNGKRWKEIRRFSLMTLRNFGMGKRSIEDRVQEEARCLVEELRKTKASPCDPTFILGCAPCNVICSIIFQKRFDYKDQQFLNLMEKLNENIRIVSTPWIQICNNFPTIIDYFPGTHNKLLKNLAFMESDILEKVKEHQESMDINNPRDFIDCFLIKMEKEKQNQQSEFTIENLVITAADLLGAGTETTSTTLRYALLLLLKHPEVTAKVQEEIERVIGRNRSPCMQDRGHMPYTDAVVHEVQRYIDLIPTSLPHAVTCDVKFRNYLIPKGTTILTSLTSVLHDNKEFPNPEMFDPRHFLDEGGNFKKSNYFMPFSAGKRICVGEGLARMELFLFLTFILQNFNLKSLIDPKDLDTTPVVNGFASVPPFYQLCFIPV

Broadly, the IC50 is the concentration at which inhibition is half-maximal. With `O=C(c1c(F)ccc(NS(=O)(=O)c2c(F)cccc2F)c1F)c1c[nH]c2nccc(Cl)c12` [P-2033, N-[3-(4-Chloro-1H-pyrrolo[2,3-b]pyridine-3-carbonyl)-2,4-difluoro-phenyl]-2,6-difluoro-benzenesulfonamide], the IC50 was less than 10 nM in data set [1], greater than 10 µM in data set [2], greater than 10 µM in data set [3] and greater than 10 µM in data set [4].
For `N#Cc1ccnc2[nH]cc(C(=O)c3c(F)ccc(NS(=O)(=O)c4cc(F)ccc4F)c3F)c12` [P-2036, N-[3-(4-Cyano-1H-pyrrolo[2,3-b]pyridine-3-carbonyl)-2,4-difluoro-phenyl]-2,5-difluoro-benzenesulfonamide], the IC50 is less than 10 nM in data set [1], greater than 10 µM in data set [2], greater than 10 µM in data set [3] and greater than 10 µM in data set [4].
For `COc1ccnc2[nH]cc(C(=O)c3c(F)ccc(NS(=O)(=O)c4cccnc4)c3F)c12` [P-2073, Pyridine-3-sulfonic acid [2,4-difluoro-3-(4-methoxy-1H-pyrrolo[2,3-b]pyridine-3-carbonyl)-phenyl]-amide], the IC50 in data set [1] is less than 10 nM; in data set [2] it was greater than 10 µM; in data set [3], greater than 10 µM; in data set [4], 5 to 10 µM.
For the compound `N#Cc1cnc2[nH]cc(C(=O)c3cccc(NS(=O)(=O)c4ccccc4F)c3F)c2c1` [P-2051, N-[3-(5-Cyano-1H-pyrrolo[2,3-b]pyridine-3-carbonyl)-2-fluoro-phenyl]-2-fluoro-benzenesulfonamide], the IC50 in data set [1] was less than 100 nM; in data set [2], greater than 10 µM; in data set [3], greater than 10 µM; in data set [4] it was greater than 10 µM.
